In patent US6066485A, “Growth factor inducible serine/threonine phosphatase fin13” (New York University, priority 1997, dated 2000):
Read-outs that look alike come from different tables or passages of the source.

Tests used:
FIN13 mRNA [1] = assay: FIN13 mRNA in ovaries of mice stimulated with DES; assay type: in vivo; settings: mouse
Procedure: Northern analysis. RNA was electrophoresed on a 1% formaldehyde agarose gel, transferred overnight in 20×SSC to Genescreen-Plus nylon filters (Du Pont) and fixed by u.v. crosslinking. Filters were prehybridized, hybridized with radiolabeled cDNA probes and washed under standard conditions. To stimulate folliculogensis, immature mice (3 weeks) were injected subcutaneously with diethylstilbesterol (DES) or vehicle essentially as described previously (Guthridge et al., Growth Factors, 7:15 (1992)), and RNA was prepared from ovaries four days after stimulation.

myc-FIN13 = molecular target: T1, myc-FIN13 (Mus musculus, UniProt Q61074); assay: Phosphatase assay of myc-FIN13 immunoprecipitated from transfected HeLa cells; assay type: biochemical
T1 construct: in-frame with, and N-terminal to, the FIN13 open reading frame; expressed in transfected cells; host or cells: HeLa
T1 sequence (Q61074 151-542): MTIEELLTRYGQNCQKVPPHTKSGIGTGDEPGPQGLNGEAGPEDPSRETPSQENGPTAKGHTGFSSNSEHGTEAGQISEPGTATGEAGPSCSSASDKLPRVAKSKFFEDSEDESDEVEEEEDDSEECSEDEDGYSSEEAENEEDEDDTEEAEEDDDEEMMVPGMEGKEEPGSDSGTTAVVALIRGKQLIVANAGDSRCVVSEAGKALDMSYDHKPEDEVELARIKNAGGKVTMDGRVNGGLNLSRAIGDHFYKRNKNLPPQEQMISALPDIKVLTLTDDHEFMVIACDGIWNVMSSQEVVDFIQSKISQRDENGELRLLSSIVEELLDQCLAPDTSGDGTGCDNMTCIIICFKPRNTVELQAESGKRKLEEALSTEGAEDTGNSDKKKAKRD
Procedure: FIGS. 6A-6C. Phosphatase activity and expression of FIN13 in mammalian cells. HeLa cells transfected with either pRK5 vector or pRKmyc-FIN13 (expressing myc-FIN13) and harvested 24 h later, were lysed in lysis buffer and cleared extracts ([…]) were immunoprecipitated with either anti-myc antibodies (9E10) or anti-FIN13 antiserum (630). IPs were then divided and subjected to either Western analysis for the detection of FIN13 expression or a phosphatase assay. For the detection of FIN13 (A), 1/4 of the IP was boiled in sample buffer and loaded onto a 10% polyacrylamide gel, electrophoresed and transferred to a nitrocellulose filter. Western blot analysis was performed using the 630 antiserum at 1:500 as described in Materials and Methods. For analysis of phosphatase activity (B), the ability of myc-FIN13 immunoprecipitates (1/8 of IP) to dephosphorylate ^32 P-labelled casein was examined in vitro in the presence of okadaic acid and MnCl2 as described in Materials and Methods. […]
Phosphatase assay. The phosphatase activity of purified FIN13 expressed in bacteria as a fusion protein with N- and C-terminal his-tags was assessed in vitro using ^32 P-labelled casein as a substrate. […] In addition, the phosphatase activity of FIN13 expressed in HeLa cells was also determined in an immune complex using ^32 P-labelled casein as a substrate. […]

his-FIN13 = molecular target: T2, his-FIN13 (Mus musculus, UniProt Q61074); assay: Phosphatase assay of bacterially expressed his-FIN13 with 32P-labelled casein; assay type: biochemical
T2 construct: Purified his-tagged full length FIN13 (his-FIN13); made in house; host or cells: E. coli BL21(DE3)
T2 sequence (Q61074 151-542 limits assumed): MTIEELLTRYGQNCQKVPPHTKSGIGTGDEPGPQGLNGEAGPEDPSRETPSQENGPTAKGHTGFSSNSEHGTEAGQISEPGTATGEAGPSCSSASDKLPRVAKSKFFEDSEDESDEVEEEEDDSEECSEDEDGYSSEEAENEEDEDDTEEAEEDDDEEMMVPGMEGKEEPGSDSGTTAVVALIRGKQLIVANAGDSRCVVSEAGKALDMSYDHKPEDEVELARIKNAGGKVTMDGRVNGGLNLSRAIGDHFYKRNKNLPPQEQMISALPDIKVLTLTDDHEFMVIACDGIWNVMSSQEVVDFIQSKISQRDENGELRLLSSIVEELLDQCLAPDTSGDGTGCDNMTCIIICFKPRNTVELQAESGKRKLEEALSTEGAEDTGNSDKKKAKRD
Procedure: FIG. 5. Phosphatase activity of bacterially expressed FIN13. Purified his-tagged full length FIN13 (his-FIN13) or his-tagged catalytic domain FIN13 (his-FIN13-cat) were examined for their ability to dephosphorylate ^32 P-labelled cascin in vitro as described in the Materials and Methods. Phosphatase assays were performed in the absence of his-FIN13 (No FIN13; open bar) or with his-FIN13 incubated in the presence of 10 mM of the indicated divalent cation (MgCl2, ZnCl2, CaCl2 or MnCl2)(solid bars) or in the presence of the indicated mM concentrations of MnCl2 (half-tone bars). +EDTA: indicates his-FIN13 incubated in the presence of 10 mM EDTA and 10 mM MnCl2. his-FIN13-cat was incubated in the presence of the indicated mM concentrations of MnCl2 (cross-hatched bars). his-FIN13 was also incubated in the presence of 1 μM okadaic acid (OA), 20 mg/ml poly L-lysine (PL-L), 20 mg/ml protamine sulfate (PS). All incubations were performed for 1 h at 30° C.
Preparation of ^32 P-labelled casein. Casein (10 mg)(Sigma) was labelled with ^32 P using 10U of the catalytic subunit of cAMP dependent protein kinase (Sigma) in 50 mM Tris-HCl pH 7.0, 0.1 mM EGTA, 10 mM Mg-acetate, 0.1% β-mercaptoethanol, and 0.5 mCi of ^32 PγATP for 12 h at 30° C. The reaction mixture was then precipitated at 4° C. in 20% TCA. Labelled casein was recovered by centrifugation, the pellet washed 5 times in 100% acetone and resuspended in 50 mM Tris-HCl, 0.1 mM EGTA.
Phosphatase assay. The phosphatase activity of purified FIN13 expressed in bacteria as a fusion protein with N- and C-terminal his-tags was assessed in vitro using ^32 P-labelled casein as a substrate. For preparation of his-FIN13 and his-FIN13-cat from bacteria, the BL21(DE3) strain transformed with pEThis-FIN13 or pEThis-FIN13-cat were induced with 0.2 mM IPTG for 2 h following which the cells were recovered by centrifugation, resuspended in column buffer (50 mM sodium phosphate, pH 8.0, 300 mM NaCl, 1 mM PMSF) and frozen overnight at -70° C. The bacteria were then lysed by sonication at 4° C. and the extract cleared by centrifugation. The supernatant was then adsorbed to Ni-NTA-agarose (Qiagen) at 4° C. for 1 h. The resin was then washed extensively in column buffer without PMSF and his-FIN13 or his-FIN13-cat were eluted using 25 mM Tris-HCl pH 7.2, 100 mM NaCl containing […] imidazole (Sigma). In addition, the phosphatase activity of FIN13 expressed in HeLa cells was also determined in an immune complex using ^32 P-labelled casein as a substrate. For preparation of immune complexes of myc-FIN13, HeLa cells were transfected with […] of pRKmyc-FIN13 or pRK5. Cells were lysed 24 h after transfection in lysis buffer (10 mM Na-phosphate pH 7.4, 100 mM NaCl, 1% TRITON X-100, 10 mM EDTA) also containing a protease/phosphatase inhibitor cocktail (1 mM PMSF, 1 μg/ml pepstatin, 1 μg/ml leupeptin, 1 μg/ml aprotinin, 10 mM Na-orthovanadate, 80 mM NaF, 80 mM β-glycerolphosphate, 10 μM okadaic acid). Cleared lysates (100 μg total protein) were immunoprecipitated with anti-myc monoclonal antibody (9E10) adsorbed to 30 μl protein G sepharose (Zymed) or anti-FIN13 antiserum adsorbed to 30 μl protein A sepharose (Zymed) for 1.5 h at 4° C. The anti-FIN13 polyclonal antiserum (630) was generated against the full length his-FIN13 expressed and purified from bacteria. The IPs were then washed 5 times with lysis buffer, once with 10 mM Tris-HCl pH 7.0, 100 mM NaCl and 5 mM MnCl2, and twice with phosphatase reaction buffer (10 mM Tris-HCl pH 7.0, 0.1 mM EGTA, 10 mM DTT and 10 mM MnCl2) containing 1 μM okadaic acid. Purified his-FIN13, his-FIN13-cat or myc-lPs were then examined for phosphatase activity by incubating the indicated FIN13 preparation in the presence of phosphatase reaction buffer containing ^32 P-labelled casein (1×10^5 cpm; approx. 1 μl) at 30° C. for up to 2 h.

FIN13 mRNA [2] = assay: Northern analysis of FIN13 mRNA induction in NIH 3T3 cells; assay type: cell-based, mouse
Procedure: FIG. 4. Regulation of FIN13 (and other FINs) mRNA in response to FGF-4. NIH 3T3 cells were starved for 48 h in DMEM/0.5% CS and stimulated for the indicated times up to 24 h with 100 ng/ml FGF-4. A15 cells and NIH 3T3 cells growing asynchronously in the presence of DMEM/10% CS are indicated as A15 and 3T3 respectively. Total RNA (6 μg) was examined by Northern analysis with ^32 P-labelled cDNAs for the indicated FIN genes shown on the left. The position of 28S and 18S rRNA are indicated on the right.
(§1) Cell culture. Mouse NIH 3T3 cells and A15 cells were cultured in Dulbecco's modified Eagle's medium (DMEM) containing 10% calf serum (CS). A15 cells are a NIH 3T3 cell line transformed with a human genomic fragment of the FGF-4 gene and have been previously described (Delli Bovi and Basilico, 1987, Proc. Natl. Acad. Sci. USA 84:5660). Rat pheochromocytoma PC12 cells were cultured in DMEM containing 10% heat inactivated horse serum (HS) (Gemini Bioproducts), 5% fetal bovine serum (FBS) (Gemini Bioproducts). […] Greater than 90% of PC12 cells had differentiated after 96 h or FGF-4 or NGF treatment as determined by the induction of neurite-like processes. […]
A maximum induction of 6-fold following 18 h stimulation was observed. […] The effect of cycloheximide on the induction of FIN13 mRNA was evaluated as follows. […]

Protein phosphatase 2A = Protein phosphatase 2A (Homo sapiens, UniProt P67775); assay: Protein phosphatase 2A control phosphatase assay; assay type: biochemical; settings: 2 h, presence of okadaic acid
FIN13 transcripts = assay: Regulation of FIN13 transcripts in PC12 cells; assay type: cell-based, rat; settings: starved PC12 cells
Procedure: as §1, with “Bioproducts). For stimulation with growth factors, NIH 3T3 cells were grown to 60-80% confluence, starved for 48 h in DMEM containing 0.5% CS and then stimulated with 50 ng/ml recombinant human FGF-4 or 10% CS for up to 24 h. Where indicated 10 μg/ml cycloheximide was added simultaneously with the growth factor. PC12 cells were starved for 48 h in DMEM containing 4.9 g/l glucose, 0.1% HS and 5% FBS for up to 24 h.” for “Bioproducts).”
Cells were starved for 48 h in 0.2% serum and then stimulated with either serum or FGF-4. […] Similar regulation of FIN13 was observed when starved PC12 cells were stimulated with FGF-4 with maximum expression detected at 12 h which decreased until 96 h.

Chain of Protein phosphatase 2A (P67775 whole entry): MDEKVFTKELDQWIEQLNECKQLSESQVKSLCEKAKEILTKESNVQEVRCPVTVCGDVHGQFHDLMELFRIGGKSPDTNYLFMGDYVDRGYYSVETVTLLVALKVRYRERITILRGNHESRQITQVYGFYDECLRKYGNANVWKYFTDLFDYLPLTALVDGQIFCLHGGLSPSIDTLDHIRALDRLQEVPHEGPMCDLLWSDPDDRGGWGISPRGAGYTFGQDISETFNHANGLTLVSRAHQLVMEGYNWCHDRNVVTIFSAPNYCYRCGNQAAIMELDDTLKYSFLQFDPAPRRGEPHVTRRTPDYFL

For CC/C(=C(/CC)c1ccc(O)cc1)c1ccc(O)cc1 [DES, diethylstilbesterol], the “expression of fin13 mRNA in ovaries” value (FIN13 mRNA [1]) was “increases expression”.

O=C(O)CN(CCN(CC(=O)O)CC(=O)O)CC(=O)O [EDTA] was tested, and the “effect on FIN13 activity in 9E10 IPs” value (myc-FIN13; EDTA 10 mM) was “abolished” and the “effect on his-FIN13 phosphatase activity” value (his-FIN13) was “abolished activity”.

C[C@@H]1C[C@@H]([C@H](O)CC2CC(=O)NC(=O)C2)C(=O)[C@@H](C)C1 [cycloheximide] was tested, and the “induction of FIN13 mRNA by FGF-4 in presence of protein synthesis inhibitor” value (FIN13 mRNA [2]; 18 h FGF-4, 10 mg/ml cycloheximide) was “did not result in induction of FIN13”.

C=C1[C@@H](O)[C@@H]2O[C@]3(CC[C@H](/C=C/[C@@H](C)[C@@H]4CC(C)=C[C@@]5(O[C@H](C[C@@](C)(O)C(=O)O)CC[C@H]5O)O4)O3)CC[C@H]2O[C@@H]1[C@@H](O)C[C@H](C)[C@H]1O[C@@]2(CCCCO2)CC[C@H]1C [okadaic acid] was tested, and the “effect on PP2A activity” value (Protein phosphatase 2A) was “abolished” and the “effect on his-FIN13 phosphatase activity” value (his-FIN13; 1 μM okadaic acid) was “not inhibited”.

B1: FGF-4: recombinant human fibroblast growth factor 4 (protein, UniProt P08620 31-206, looked up)
Fibroblast growth factor 4: APTAPNGTLEAELERRWESLVALSLARLPVAAQPKEAAVQSGAGDYLLGIKRLRRLYCNVGIGFHLQALPDGRIGGAHADTRDSLLELSPVERGVVSIFGVASRFFVAMSSKGKLYGSPFFTDECTFKEILLPNNYNAYESYKYPGMFIALSKNGKTKKGNRVSPTMKVTHFLPRL
With B1 the “time of maximum FIN13 expression” value (FIN13 transcripts) was 12 h and the “maximum induction of FIN13 mRNA” value (FIN13 mRNA [2]; 18 h stimulation of NIH 3T3 cells) was 6 fold.

B2: myc-FIN13: FIN13 N-terminally fused to the myc epitope, expressed from pRKmyc-FIN13 (protein)
chain: MTIEELLTRYGQNCQKVPPHTKSGIGTGDEPGPQGLNGEAGPEDPSRETPSQENGPTAKGHTGFSSNSEHGTEAGQISEPGTATGEAGPSCSSASDKLPRVAKSKFFEDSEDESDEVEEEEDDSEECSEDEDGYSSEEAENEEDEDDTEEAEEDDDEEMMVPGMEGKEEPGSDSGTTAVVALIRGKQLIVANAGDSRCVVSEAGKALDMSYDHKPEDEVELARIKNAGGKVTMDGRVNGGLNLSRAIGDHFYKRNKNLPPQEQMISALPDIKVLTLTDDHEFMVIACDGIWNVMSSQEVVDFIQSKISQRDENGELRLLSSIVEELLDQCLAPDTSGDGTGCDNMTCIIICFKPRNTVELQAESGKRKLEEALSTEGAEDTGNSDKKKAKRD
B2 was tested, and the “phosphatase activity of immunoprecipitate in vitro” value (myc-FIN13; IP with 9E10 or 630, okadaic acid and MnCl2 present) was “exhibited phosphatase activity”.
